Laboratory results taken from patent US12539296B2, “Montelukast for the treatment of erosive hand osteoarthritis” (MMC INTELLECTUAL PROPERTY INSTITUTE, S.L., priority 2018, dated 2026).

What was measured:
[1] = system: patients with erosive hand osteoarthritis; assay: Clinical observational study of oral 10 mg montelukast daily in patients with erosive hand osteoarthritis (Example 4); type: in vivo, human; conditions: 10 mg daily oral, 3 to 16 months
Experimental: A preliminary clinical observational study was performed in patients suffering from erosive hand osteoarthritis.
50 patients with erosive hand osteoarthritis which were non-respondent or with limited response after treatment with analgesics and/or anti-inflammatories were selected for the study. The patients were administered 10 mg of montelukast daily by the oral route, using an orally dispersible composition prepared as disclosed in Example 1, according to a once-daily dosage regimen.
The following parameters were used to evaluate the efficacy of the treatment: (i) improvement in clinical symptoms; (ii) efficacy in pain relief; and (iii) improvement in radiological evaluation. All assessments were focused on one of the hands of the patients.
The improvement in clinical symptoms was assessed by evaluating the improvement in symptoms such as functionality, stiffness and deformity of the affected hand that entail an improvement in the quality of life of the patients.
For assessing the efficacy in pain relief, the patients were asked to evaluate the pain they felt using the visual analogue scale (VAS) methodology, both before the treatment and at the end of the treatment period.
For assessing the efficacy of the treatment in the radiological parameters of the hand, the following features in the affected joints were evaluated: a) edema, b) subchondral erosions, c) synovitis and d) tenosynovitis. These features were radiologically assessed by means of posteroanterior radiographs of the hand, performed before and after the treatment period. The treatment was considered to provide radiological improvement if there was observable improvement in at least two of the assessed features and no worsening in the remaining features.

[2] = system: patients with erosive hand osteoarthritis; assay: Clinical study of oral 20 mg montelukast daily in patients non-respondent to 10 mg (Example 5); type: in vivo, human
Experimental: For this study, 9 patients were selected from the previous study (Example 4) among those who were non-respondents to the treatment (10 mg montelukast daily).
In the present study, the patients were administered a daily dose of montelukast of 20 mg by the oral route, also using an orally dispersible composition prepared as disclosed in Example 1, according to a once-daily dosage regimen. The age of the patients ranged from 52 to 78 years.
As in the previous study, for assessing the efficacy in pain relief, the visual analogue scale (VAS) methodology was used, where the pain was assessed on a scale of 0 to 10.
For assessing the efficacy in hand functionality improvement, also a visual analogue scale (VAS) of 0 to 10 was also used, wherein 0 meant full functionality, i.e., full ability to hold objects, and 10 meant absence of functionality, i.e., inability to hold any object
The “initial” values mean the values before starting the treatment, and the “final” values mean the values after completing the treatment.

[3] = system: patient with erosive hand osteoarthritis; assay: Efficacy of topical treatment in one patient with erosive hand osteoarthritis (Example 6); type: in vivo, human; conditions: 12 weeks
Experimental: After a wash-up period of several weeks, the patient started treatment with a topical formulation prepared as disclosed in example 3, with a dosage of about 10 mg daily per hand, spread on the affected zone for a period of 12 weeks.

patients aged ≥6 years = conditions: for example 200 mg/daily; cited from earlier work
[4] = 20 mg daily oral, beginning vs end of treatment
[5] = topical gel of example 3, about 10 mg daily per hand

For `CC(C)(O)c1ccccc1CC[C@@H](SCC1(CC(=O)O)CC1)c1cccc(/C=C/c2ccc3ccc(Cl)cc3n2)c1` [montelukast, 2-[1-[[(1R)-1-[3-[(E)-2-(7-chloroquinolin-2-yl)ethenyl]phenyl]-3-[2-(2-hydroxypropan-2-yl)phenyl]propyl]sulfanylmethyl]cyclopropyl]acetic acid], which “additional patients with no worsening of the assessed radiological parameters” value [1] is on record?
Its value is 10 patients.

What about the “patients with improvement after radiological evaluation (at least two features improved, none worse)” value ([1]; of 50 patients, posteroanterior radiographs) of the same compound?
The value was 28 patients.

And the “patients reporting effective pain relief (VAS reduction of at least 2 units on 0 to 10 scale)” value ([1]; out of 45 patients with pain before treatment)?
Its value is 28 patients.

And the “patients with improvement in edema” value ([1]; radiological evaluation)?
Its value is 19 patients.

What about the “patients with improvement in erosions” value ([1]; radiological evaluation) of the same compound?
Its value is 14 patients.

And the “patients with improvement in synovitis” value ([1]; radiological evaluation)?
Its value is 28 patients.

What about the “patients with improvement in tenosynovitis” value ([1]; radiological evaluation) of the same compound?
Its value is 18 patients.

And the “patients with improvement in clinical symptoms (functionality, stiffness, deformity)” value ([1]; once-daily, of 50 patients)?
The value was 32 patients.

And the “proportion of patients not responding to 10 mg daily that showed pain relief” value ([2]; 20 mg daily oral)?
The value was roughly 70%.

And the adverse effects reported ([2]; 20 mg daily oral, 9 patients)?
The adverse effects reported was “No adverse effects”.

What about the “improvement in hand functionality” value ([2]; 20 mg daily oral, all patients) of the same compound?
Its value is 35%.

And the “pain relief in the responding patients” value ([2]; 20 mg daily oral, almost 70% of the patients)?
Its value is 55%.

What about the “final VAS hand functionality score, mean” value [2, 4] of the same compound?
The value was 4.56±0.39.

What about the “final VAS pain score, mean” value [2, 4] of the same compound?
The value was 3.89±0.54.

And the “VAS hand functionality final, Min - Max” value ([2]; after completing 20 mg daily oral treatment, individual values)?
Its value is 3-6.

What about the “VAS pain final, Min - Max” value ([2]; after completing 20 mg daily oral treatment, individual values, scale 0 to 10) of the same compound?
Its value is 1-6.

And the “VAS hand functionality final, Mean” value ([2]; after completing 20 mg daily oral treatment, scale 0 (full functionality) to 10 (absence))?
Its value is 4.56.

And the “VAS pain final, Mean” value ([2]; after completing 20 mg daily oral treatment, scale 0 to 10, 9 patients)?
The value was 3.89.

And the “VAS hand functionality initial, Min - Max” value ([2]; before starting 20 mg daily oral treatment (baseline), individual values)?
The value was 5-8.

And the “VAS pain initial, Min - Max” value ([2]; before starting 20 mg daily oral treatment (baseline), individual values, scale 0 to 10)?
Its value is 5-9.

And the “VAS hand functionality initial, Mean” value ([2]; before starting 20 mg daily oral treatment (baseline), scale 0 (full functionality) to 10 (absence))?
The value was 7.00.

What about the “VAS pain initial, Mean” value ([2]; before starting 20 mg daily oral treatment (baseline), scale 0 to 10, 9 patients) of the same compound?
Its value is 7.00.

What about the “clinical symptoms of osteoarthritis” value [3, 5] of the same compound?
The value was “improvement in the clinical symptoms”.

And the pain relief [3, 5]?
The pain relief was “significant pain relief”.

And the “adverse effects at high doses” value (patients aged ≥6 years)?
The value was “does not cause adverse effects”.

With `CCC(=O)O[C@]1(C(=O)COC(C)=O)CC[C@H]2[C@@H]3C[C@H](C)C4=CC(=O)C=C[C@]4(C)[C@H]3[C@@H](O)C[C@@]21C` [methylprednisolone aceponate] as the compound, how does the radiological assessment ([3]; topical, once daily) read?
The radiological assessment was “progression of the disease”.

And the “pain score (VAS, 0-10 scale) remaining under treatment” value ([3]; topical, once daily, no improvement in pain relief)?
Its value is “higher than 5”.
